In one series the test system is ETR1:HA. Nature of the series: Co-IP competition: synthetic PLS vs PLS:GFP binding to ETR1:HA in N. benthamiana leaves. Further details: species or system Arabidopsis. The following applies: 25 nM synthetic PLS(FL), 0.5 μM CuSO4, 50 μM MG-132, 30 min before tissue harvest. The text has this:
To investigate the interaction between the PLS peptide and the ethylene receptor ETR1, two DNA constructs were created by Gateway cloning. The […] PLS gene (without the stop codon) was inserted into the pEarlyGate103 (pEG103) destination vector, which contained the pro35S promoter and a C-terminal GFP tag, to produce a vector containing pro35S::PLS:GFP DNA. The ETR1 cDNA was inserted into the pEarlyGate301 (pEG301) vector to create a pro35S::ETR1:HA construct to express an ETR1 protein with a C-terminal HA tag. pro35S::GFP was used as a control. The primers used to clone ETR1 and PLS are found in supplemental Table 9.
Constructs were transiently expressed in N. benthamiana (tobacco) leaves as described previously ([Voinnet et al., 2003]). Experiments were replicated up to five times. Competent Agrobacterium tumefaciens GV3101 cells were transformed with the desired plasmid containing the gene of interest and injected with a syringe. The plants were approximately 7–10 weeks old; the chosen leaves were healthy and 3–6 cm in length, and 3 to 4 leaves were infiltrated with each construct. […]
SDS–PAGE was used to separate protein fragments. The complexed proteins from the pulldown assay were analyzed on 10%–12% acrylamide gels. […] The horseradish peroxidase conjugated to the secondary antibody was detected using X-ray film. […]

Series [1] in a line: Solubility during Cu(I) titration. The series is classed as physicochemical. The following applies: strictly anaerobic conditions. The method, then: All Cu(I) titration experiments were carried out in an anaerobic chamber (Belle Technology) using metal-free CHELEX-treated, degassed buffers. For titration experiments with Cu(I), aqueous CuSO4 stock was quantified in advance by ICP–MS and diluted to working concentrations. The reductant NH2OH was included at a final concentration of 1 mM to maintain Cu(I) in its reduced state. Proteins were diluted in buffer to the final concentration specified in each titration in air-tight quartz cuvettes (Helma), and after addition of probe to the concentration specified, titrated with CuSO4. After each addition, solutions were thoroughly mixed and absorbance spectra recorded using a Lambda 35 UV/Vis spectrophotometer (PerkinElmer). Titration isotherm data were fitted using simulated affinity curves with DynaFit ([Kuzmič, 2009]).

On to “PLS(FL): full-length 36-amino-acid PLS peptide from Arabidopsis (MKPRLCFNFRRRSISPCYISISYLLVAKLFKLFKIH)”, for which, in the series with ETR1:HA, the “reduction in PLS:GFP binding to ETR1:HA” value is given as around 80%. In series [1], the solubility result was “problems with PLS solubility”.
